According to the supplement of paper PMC10307832:

Assays:
Test in all cases: relative viability (nuclei count vs DMSO), 5 days (fraction); higher = more cells survive
[1] = compound: CCn1c(-c2nonc2N)nc2cnc(Oc3cccc(NC(=O)c4ccc(OCCN5CCOCC5)cc4)c3)cc21 + CC(=O)c1c(C)c2cnc(Nc3ccc(N4CCNCC4)cn3)nc2n(C2CCCC2)c1=O [Palbociclib] (partner 0.5 µM)
Summary of the method: (§1)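 Lung cancer cell lines in 1536-well plates were dosed by pin tool the day after seeding, either with one drug alone or with a fixed anchor-drug dose plus five library-drug doses (not always all listed) in √10 steps. After 5 days, cells were fixed and their nuclei stained in one step (final 0.05% Triton X-100, 1% formaldehyde, 1 ug/ml Hoechst), then counted on 4× images. Relative viability is the nuclei count in treated wells divided by that in vehicle wells. Values are medians of duplicate plates.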

[2] = compound: CCn1c(-c2nonc2N)nc2cnc(Oc3cccc(NC(=O)c4ccc(OCCN5CCOCC5)cc4)c3)cc21 + O=C(CCCCCCC(=O)Nc1ccccc1)NO [Vorinostat] (partner 1 µM)
Summary of the method: as §1

[3] = compound: CCn1c(-c2nonc2N)nc2cnc(Oc3cccc(NC(=O)c4ccc(OCCN5CCOCC5)cc4)c3)cc21 + C[C@]1(O)C[C@@H](c2nc(-c3ccc4ccc(-c5ccccc5)nc4c3)c3c(N)nccn32)C1 [Linsitinib] (partner 1 µM)
Summary of the method: as §1

Mirin + Linsitinib = compound: N=C1NC(=O)/C(=C/c2ccc(O)cc2)S1 [Mirin] + C[C@]1(O)C[C@@H](c2nc(-c3ccc4ccc(-c5ccccc5)nc4c3)c3c(N)nccn32)C1 [Linsitinib] (partner 1 µM)
Summary of the method: as §1

Cell Line | relative viability ([1]; first compound 0.04 µM) | relative viability ([1]; first compound 0.1265 µM) | relative viability ([1]; first compound 0.4 µM) | relative viability ([1]; first compound 1.265 µM) | relative viability ([1]; first compound 4 µM) | relative viability ([2]; first compound 0.04 µM) | relative viability ([2]; first compound 0.1265 µM) | relative viability ([2]; first compound 0.4 µM) | relative viability ([2]; first compound 1.265 µM) | relative viability ([2]; first compound 4 µM) | relative viability ([3]; first compound 0.04 µM) | relative viability ([3]; first compound 0.1265 µM) | relative viability ([3]; first compound 0.4 µM) | relative viability ([3]; first compound 1.265 µM) | relative viability ([3]; first compound 4 µM) | relative viability (Mirin + Linsitinib; first compound 0.25 µM) | relative viability (Mirin + Linsitinib; first compound 0.7906 µM) | relative viability (Mirin + Linsitinib; first compound 2.5 µM) | relative viability (Mirin + Linsitinib; first compound 7.906 µM) | relative viability (Mirin + Linsitinib; first compound 25 µM)
NCI-H2170 | 0.434 | 0.405 | 0.378 | 0.408 | 0.407 | 0.797 | 0.8 | 0.763 | 0.538 | 0.484 | – | – | – | – | – | – | – | – | – | –
HCC-366 | 0.367 | 0.375 | 0.354 | 0.105 | 0.0645 | 0.396 | 0.3 | 0.137 | 0.0204 | 0.0377 | 0.435 | 0.64 | 0.597 | 0.0751 | 0.0223 | 0.677 | 0.468 | 0.903 | 0.644 | 0.316
NCI-H2405 | 0.572 | 0.361 | 0.304 | 0.234 | 0.222 | 0.938 | 0.488 | 0.264 | 0.239 | 0.238 | 0.955 | 0.568 | 0.417 | 0.31 | 0.263 | 0.891 | 1 | 0.963 | 0.895 | 0.789
COR-L 105 | 0.407 | 0.402 | 0.344 | 0.36 | 0.336 | 0.941 | 0.785 | 0.762 | 0.419 | 0.412 | 0.774 | 0.766 | 0.862 | 0.451 | 0.391 | 0.984 | 1.02 | 1.13 | 1.09 | 0.846
201T | 0.359 | 0.366 | 0.368 | 0.354 | 0.345 | 1.07 | 0.882 | 0.717 | 0.876 | 0.896 | 1.01 | 1.05 | 1.03 | 1.03 | 1.1 | 1 | 1.04 | 1.01 | 1.02 | 1.09
NCI-H2228 | 0.852 | 0.8 | 0.652 | 0.683 | 0.644 | 0.842 | 0.524 | 0.891 | 0.543 | 0.456 | 1.3 | 0.912 | 0.906 | 0.992 | 0.51 | 0.702 | 0.64 | 0.783 | 0.831 | 0.553
LC-2-ad | 0.563 | 0.469 | 0.455 | 0.355 | 0.307 | 0.728 | 0.618 | 0.258 | 0.29 | 0.277 | 0.936 | 0.899 | 0.756 | 0.55 | 0.352 | 0.816 | 1.03 | 0.937 | 0.833 | 0.732
NCI-H2085 | 0.514 | 0.44 | 0.402 | 0.359 | 0.39 | 0.735 | 0.633 | 0.579 | 0.54 | 0.585 | 1.02 | 0.9 | 0.756 | 0.792 | 0.683 | 0.943 | 1.01 | 0.898 | 0.819 | 0.882
NCI-H358 | 0.162 | 0.167 | 0.134 | 0.145 | 0.135 | 0.814 | 0.736 | 0.715 | 0.715 | 0.511 | 1.12 | 0.615 | 0.574 | 0.571 | 0.434 | 0.734 | 0.719 | 0.836 | 0.57 | 0.373
H3255 | 0.293 | 0.311 | 0.318 | 0.296 | 0.305 | 0.92 | 0.743 | 0.686 | 0.618 | 0.568 | 1.2 | 0.952 | 0.99 | 0.62 | 0.768 | 0.9 | 0.886 | 0.972 | 0.954 | 0.97
NCI-H23 | 0.708 | 0.521 | 0.547 | 0.394 | 0.353 | 0.735 | 0.526 | 0.3 | 0.531 | 0.55 | 0.636 | 0.827 | – | 0.549 | 0.477 | 0.618 | – | 0.573 | 0.612 | 0.543
CAL-12T | 0.778 | 0.619 | 0.47 | 0.345 | 0.298 | 1.44 | 0.862 | 0.731 | 0.553 | 0.288 | 1.12 | 1.01 | 0.768 | 0.704 | 0.731 | 0.856 | 0.726 | 0.825 | 0.856 | 0.838
A-427 | 0.46 | 0.495 | 0.412 | 0.283 | 0.275 | 0.812 | 0.733 | 0.587 | 0.243 | 0.284 | 1.2 | 1.16 | 1.15 | 1.06 | 1.06 | 1.11 | – | 1.19 | 1.19 | 1.2
HARA | 0.278 | 0.232 | 0.242 | 0.172 | 0.199 | 0.524 | 0.551 | 0.538 | 0.577 | 0.645 | 1.04 | 0.733 | 1 | 0.634 | 0.698 | 0.935 | 0.994 | 0.988 | 1.02 | 0.738
NCI-H1793 | 0.263 | 0.304 | 0.3 | 0.283 | 0.251 | 0.721 | 0.712 | 0.602 | 0.424 | 0.496 | 0.572 | 0.801 | 0.915 | 0.715 | 0.513 | 0.816 | 0.794 | 0.902 | 0.947 | 0.641
NCI-H2009 | 0.175 | 0.196 | 0.141 | 0.112 | 0.19 | 0.632 | 0.582 | 0.56 | 0.429 | 0.277 | 1.01 | 0.99 | 0.999 | 0.701 | 0.423 | 1.17 | 1.21 | 1.18 | 1.15 | 1.34
